The values that follow come from patent US20110166132A1, “Gamma Secretase Modulators” (Amgen Inc., priority 2007, published 2011).

What is called IC50 is the concentration needed to halve the response being measured. A high value points to weaker potency in that assay.

In this test the target is T1, gamma secretase (Homo sapiens, UniProt P49768).
T1 construct: HEK293 cells stably expressing full length Amyloid Precursor Protein (APP); endogenous in cells; host or cells: HEK 293 cells stably expressing full length APP
The test can be described thus: GSM cell-based assay: Aβ 42 inhibition or reduction in HEK 293 cells over-expressing APP (sandwich ELISA). Conditions: approximate IC50; HEK293 cells stably expressing full length APP, 24 hours incubation, 10-point dose response starting at 10 μM. The text has this:
GSM cell-based assays were designed to measure the modulation of Aβ 42 from HEK 293 cells over-expressing APP.
Three simultaneous cell-based assays, namely Aβ 42 inhibition or reduction, Aβ 40 inhibition or reduction and a measurement of cell viability of the cells from which the Aβ 42/40 readout was obtained, together gave an interpretation of gamma secretase modulation (GSM). The assays measure Aβ 42 and Ab 40 from conditioned medium of test compound treated HEK 293 cells.
HEK293 cells stably expressing full length Amyloid Precursor Protein (APP) were plated at a density of 100K cells/well in 96 well plates (Costar). The cells were cultivated for 6 hours at 37° C. and 5% CO2 in DMEM supplemented with 10% FBS. The test compounds were then added to cells in 10-point dose response concentrations with the starting concentration being 10 μM. The compounds were diluted from stock solutions in DMSO and the final DMSO concentration of the test compounds on cells was 0.1%. After 24 hours of incubation with the test compounds the supernatant conditioned media was collected and the Aβ 42, Aβ 40 levels were determined using a sandwich ELISA. A cell viability test (CellTiter-Blue Cell Viability assay, Promega) on the cells from which the conditioned medium was harvested for Aβ 42 or Aβ 40 readouts gave an indication of cell survivability as a possible reason for false positive Aβ 42 or 40 reduction or inhibition readout. The IC50 of the compound (for either Aβ 42 or Aβ 40) was calculated from the percent of control or percent inhibition of Aβ 42 or Aβ 40 as a function of the concentration of the test compound.
The sandwich ELISA to detect Aβ 42 or Aβ 40 was performed in 96 well microtiter plates, which were pre-treated with goat anti-rabbit IgG (Pierce). The capture and detecting antibody pair that were used to detect Aβ 42 and Aβ 40 from cell supernatants were rabbit monoclonal Antibody 42 (RabMAb 42) and affinity purified polyclonal Antibody 40 pAB40 (Biosource) as capture antibodies and biotinylated 6E10 (Signet Labs Inc.) as detection antibody. The optimal concentration for RabMAb 42 was 1 μg/ml in Superblock/TBS (Pierce) that was supplemented with 0.05% Tween 20 (Sigma). The optimal concentration for the pAb40 antibody was 3 μg/ml in Superblock/TBS (Pierce) that was supplemented with 0.05% Tween 20 (Sigma). Optimal concentration for the detection antibody 6E10-biotinylated was 0.5 μg/ml in Superblock/TBS (Pierce) that had been supplemented with 2% normal goat serum and 2% normal mouse serum.
Cellular supernatants were incubated with the capture antibody for 16-20 hours at 4° C., followed by 3 wash steps in TBS-tween (0.05%). The detecting antibody incubation was for 3 hours at 4° C., again followed by the wash steps as described previously. The final readout of the ELISA is Time-Resolved Fluorescence (counts per minute) using Delfia reagents Streptavidin-Europium and Enhancement solutions (Perkin Elmer) and the EnVision Multilabel plate reader (Perkin Elmer).
(In general: ELISA stands for enzyme-linked immunosorbent assay.)
Regarding `Cc1cc(-c2ccc(NC(=O)C3CC(=O)c4ccccc43)cc2)ccn1` (stereo not shown) [Cpd 120], the IC50 was more than 3.33 µM.

In turn, `Cc1cc(-c2ccc(NC(=O)[C@H](C)c3ccc4c(c3)[nH]c3ccc(Cl)cc34)cc2)ccn1` [Cpd 122, (2R)-2-(6-chloro-9H-carbazol-2-yl)-N-(4-(2-methyl-4-pyridinyl)phenyl)propanamide] returned an IC50 of 0.328 µM.

`Cc1cc(-c2ccc(NC(=O)C(CC3CCC3)c3cccc(Br)c3)cc2)ccn1` (stereo not shown) [Cpd 124, 2-(3-bromophenyl)-3-cyclobutyl-N-(4-(2-methyl-4-pyridinyl)phenyl)propanamide] gave an IC50 of 0.282 µM.

The compound `Cc1cc(-c2ccc(NC(=O)Cc3ccc4oc(-c5ccccc5)nc4c3)cc2)ccn1` [Cpd 125, N-(4-(2-methyl-4-pyridinyl)phenyl)-2-(2-phenyl-1,3-benzoxazol-5-yl)acetamide] showed an IC50 of 0.272 µM.

Turning to `Cc1cc(-c2ccc(NC(=O)[C@@H](CC(C)C)c3cccc(-c4ccc(N5CCOCC5)cc4)c3)cc2)ccn1` [Cpd 127, (2S)-4-methyl-N-(4-(2-methyl-4-pyridinyl)phenyl)-2-(4′-(4-morpholinyl)-3-biphenylyl)pentanamide], the IC50 amounted to 0.129 µM.

`Cc1cc(-c2ccc(NC(=O)C(CCF)c3cccc(Br)c3)cc2)ccn1` (stereo not shown) [Cpd 129, 2-(3-bromophenyl)-4-fluoro-N-(4-(2-methyl-4-pyridinyl)phenyl)butanamide] gave an IC50 of more than 10 µM.

The compound `Cc1cc(-c2ccc(NC(=O)[C@H](CC(C)C)c3ccc(-c4ccc(N5CCOCC5)cc4)cc3)cc2)ccn1` [Cpd 131, (2R)-4-methyl-N-(4-(2-methyl-4-pyridinyl)-phenyl)-2-(4′-(4-morpholinyl)-4-biphenylyl)pentanamide] returned an IC50 of 0.191 µM.

`Cc1cc(-c2ccc(NC(=O)C(CC(C)C)c3ccc(N4CCCCC4)cc3)cc2)ccn1` (stereo not shown) [Cpd 134, 4-methyl-N-(4-(2-methyl-4-pyridinyl)-phenyl)-2-(4-(1-piperidinyl)phenyl)-pentanamide] came in with an IC50 of 0.242 µM. The IC50 values of the last two compounds are within 1.5-fold of each other.

With `Cc1cc(-c2ccc(NC(=O)C(C)c3cccc(-c4ccc(N5CCOCC5)nc4)c3)cc2)ccn1` (stereo not shown) [Cpd 135, N-(4-(2-methyl-4-pyridinyl)phenyl)-2-(3-(6-(4-morpholinyl)-3-pyridinyl)phenyl)-propanamide], inhibition was half-maximal at 0.154 µM (IC50).

Consider `Cc1cc(-c2ccc(NC(=O)C(C)c3cccc(N4CCN(C)CC4)c3)cc2)ccn1` (stereo not shown) [Cpd 138], for which the IC50 is more than 10 µM.

On to `Cc1cc(-c2ccc(NC(=O)C(C)c3cccc(N4CCN(c5ccccn5)CC4)c3)cc2)ccn1` (stereo not shown) [Cpd 139, N-(4-(2-methyl-4-pyridinyl)phenyl)-2-(3-(4-(2-pyridinyl)-1-piperazinyl)phenyl)-propanamide], for which the IC50 is 0.166 µM.

Take `Cc1cc(-c2ccc(NC(=O)C(C)c3cccc(C4CCN(CCO)CC4)c3)cc2)ccn1` (stereo not shown) [Cpd 140]: the IC50 was more than 10 µM.

For the compound `Cc1cc(-c2ccc(NC(=O)C(C)c3cccc(N4CCOCC4)n3)cc2)ccn1` (stereo not shown) [Cpd 141], inhibition was half-maximal at 8.57 µM (IC50).

Turning to `CSc1cccc(C(C)C(=O)Nc2ccc(-c3ccnc(C)c3)cc2)c1` (stereo not shown) [Cpd 142, N-(4-(2-methyl-4-pyridinyl)phenyl)-2-(3-(methylsulfanyl)phenyl)propanamide], the IC50 was found to be 1.05 µM.

`COc1cc(NC(=O)C(C)c2cccc(Br)c2)ccc1-c1ccnc(C)c1` (stereo not shown) [Cpd 143] yielded an IC50 of 0.485 µM.

In turn, `Cc1cc(-c2ccc(NC(=O)C(CC(C)C)c3cccc(S(C)(=O)=O)c3)cc2)ccn1` (stereo not shown) [Cpd 145] came in with an IC50 of more than 10 µM.

Regarding `Cc1cc(-c2ccc(NC(=O)C(C)c3cccc(-c4ccc(N(C)C)cc4)c3)cc2)ccn1` (stereo not shown) [Cpd 147, 2-(4'-(dimethylamino)-3-biphenylyl)-N-(4-(2-methyl-4-pyridinyl)phenyl)propanamide], half-maximal inhibition (IC50) required 0.116 µM.

As to `Cc1cc(-c2ccc(NC(=O)C(C)n3cnc(-c4ccccc4)c3)cc2)ccn1` (stereo not shown) [Cpd 151, N-(4-(2-methyl-4-pyridinyl)phenyl)-2-(4-phenyl-1H-imidazol-1-yl)propanamide], inhibition was half-maximal at 0.582 µM (IC50). This IC50 lies about 5-fold higher than the previous one.

Compound `Cc1cc(-c2ccc(NC(=O)C(C)c3cccc(-c4cccc(C#N)c4)c3)cc2)ccn1` (stereo not shown) [Cpd 154, 2-(3′-cyano-3-biphenylyl)-N-(4-(2-methyl-4-pyridinyl)phenyl)propanamide] displayed an IC50 of 0.216 µM.

`COc1ncc(-c2cccc(C(C)C(=O)Nc3ccc(-c4ccnc(C)c4)cc3)c2)cn1` (stereo not shown) [Cpd 156, 2-(3-(2-methoxy-5-pyrimidinyl)phenyl)-N-(4-(2-methyl-4-pyridinyl)phenyl)-propanamide] came in with an IC50 of 0.246 µM.

As to `Cc1cc(-c2ccc(NC(=O)C(C)c3cccc(-c4ccc(C(=O)N(C)C)cc4)c3)cc2)ccn1` (stereo not shown) [Cpd 157], the IC50 was found to be 0.256 µM. The IC50 values of the last two compounds are within 1.5-fold of each other.

The compound `CC(=O)c1ccc(-c2cccc(C(C)C(=O)Nc3ccc(-c4ccnc(C)c4)cc3)c2)cc1` (stereo not shown) [Cpd 158, 2-(4′-acetyl-3-biphenylyl)-N-(4-(2-methyl-4-pyridinyl)phenyl)propanamide] came in with an IC50 of 0.139 µM. Compared with the last compound, the IC50 is about 1.8-fold lower.

In turn, `Cc1cc(-c2ccc(NC(=O)C(C)c3cccc(Br)c3)c(C#N)c2)ccn1` (stereo not shown) [Cpd 161, 2-(3-bromophenyl)-N-(2-cyano-4-(2-methyl-4-pyridinyl)phenyl)propanamide] yielded an IC50 of more than 10 µM.

Compound `Cc1cc(-c2ccc(NC(=O)C(CC3CC3)c3cccc(Br)c3)cc2)ccn1` (stereo not shown) [Cpd 163, 2-(3-bromophenyl)-3-cyclopropyl-N-(4-(2-methyl-4-pyridinyl)phenyl)propanamide] gave an IC50 of 0.184 µM.

In turn, `Cc1cc(-c2ccc(NC(=O)C(C)c3cccc(Nc4ccccc4)c3)cc2)ccn1` (stereo not shown) [Cpd 165, N-(4-(2-methyl-4-pyridinyl)phenyl)-2-(3-(phenylamino)phenyl)propanamide] displayed an IC50 of 1.16 µM.

`COCCNc1cccc(C(C)C(=O)Nc2ccc(-c3ccnc(C)c3)cc2)c1` (stereo not shown) [Cpd 166] came in with an IC50 of 2.84 µM.

In turn, `Cc1cc(-c2ccc(NC(=O)[C@H]3CCCN3C(=O)OC(C)(C)C)cc2)ccn1` [Cpd 168] yielded an IC50 of more than 10 µM.

The compound `Cc1cc(-c2ccc(NC(=O)C(C)c3ccc(NCC4CC4)cc3)cc2)ccn1` (stereo not shown) [Cpd 171, 2-(4-((cyclopropylmethyl)amino)phenyl)-N-(4-(2-methyl-4-pyridinyl)phenyl)-propanamide] had an IC50 of 2.48 µM.

Regarding `Cc1cc(-c2ccc(NC(=O)C(C)c3ccc(N(CC4CC4)CC4CC4)cc3)cc2)ccn1` (stereo not shown) [Cpd 172], half-maximal inhibition (IC50) was put at 0.54 µM. This IC50 lies about 4.6-fold lower than the previous one.

In turn, `Cc1cc(-c2ccc(NC(=O)C(CC(C)C)C3CCOCC3)cc2)ccn1` (stereo not shown) [Cpd 173] displayed a 50% inhibitory concentration (IC50) of more than 10 µM.

`Cc1cc(-c2ccc(NC(=O)C(C)c3cccc(-c4ccsc4)c3)cc2)ccn1` (stereo not shown) [Cpd 174, N-(4-(2-methyl-4-pyridinyl)phenyl)-2-(3-(3-thiophenyl)phenyl)propanamide] displayed an IC50 of 1.27 µM.

For `Cc1cc(-c2ccc(NC(=O)[C@H](CC3CC3)c3cccc(Br)c3)cc2)ccn1` [Cpd 180, (2R)-2-(3-bromophenyl)-3-cyclopropyl-N-(4-(2-methyl-4-pyridinyl)phenyl)-propanamide], the IC50 is 0.367 µM.

Compound `COCCNc1cccc(C(CC(C)C)C(=O)Nc2ccc(-c3ccnc(C)c3)cc2)n1` (stereo not shown) [Cpd 182, 2-(6-((2-methoxyethyl)amino)-2-pyridinyl)-4-methyl-N-(4-(2-methyl-4-pyridinyl)-phenyl)pentanamide] gave an IC50 of more than 10 µM.

Turning to `Cc1cc(-c2ccc(NC(=O)C(C)c3cccc(-c4csc(N5CCOCC5)n4)c3)cc2)ccn1` (stereo not shown) [Cpd 183], the midpoint of inhibition, the IC50, lay at 0.827 µM.

Compound `Cc1cc(-c2ccc(NC(=O)C3CC3(C)C)cc2)ccn1` (stereo not shown) [Cpd 184] had an IC50 of 1.09 µM.

Compound `Cc1cc(-c2ccc(NC(=O)C3CC3(F)F)cc2)ccn1` (stereo not shown) [Cpd 185] displayed an IC50 of 0.91 µM. The IC50 values of the last two compounds are within 1.5-fold of each other.

For `Cc1cc(-c2ccc(NC(=O)C3CC34CCC4)cc2)ccn1` (stereo not shown) [Cpd 186], the half-inhibitory concentration (IC50) is more than 10 µM.

`Cc1cc(-c2ccc(NC(=O)C(C)c3ccc(NC4CCOCC4)cc3)cc2)ccn1` (stereo not shown) [Cpd 188, N-(4-(2-methyl-4-pyridinyl)phenyl)-2-(4-(tetrahydro-2H-pyran-4-ylamino)phenyl)-propanamide] gave an IC50 of 2.59 µM.

For the compound `Cc1cc(-c2ccc(NC(=O)[C@H](CC(C)C)c3cc(F)cc(F)c3)cc2)ccn1` [Cpd 190], the IC50 turned out to be 0.349 µM.

`COc1cc(NC(=O)C(C)c2cccc(-c3ccc(N4CCOCC4)cc3)c2)ccc1-c1ccnc(C)c1` (stereo not shown) [Cpd 191] displayed an IC50 of 0.179 µM.
